Results published in publication PMC8833476, “Short-Term Effects of Temperature and Thyrotropin-Releasing Hormone Stimulation on Adrenocorticotropin Stability in Horses” (Animals : an Open Access Journal from MDPI, 2022).

Legend:
[1] = Short-term stability of immunoreactive ACTH in whole blood stored 1 h at 4, 20, 30, 40 or 70 °C; assay type: in vitro ADME, horse; details: for Mean change of immunoreactive ACTH concentration after 1 h: whole blood 1 h at 20 °C vs 4 °C; for ACTH concentration as percentage of the reference sample (4 °C = 100%), range over horses: equine EDTA whole blood
Protocol: For horses that underwent TRH stimulation, blood was collected 30 min after receiving 1 mg of TRH intravenously (Sigma-Aldrich Pty Ltd. (subsidiary of Merck), North Ryde BC, New South Wales, Australia). Blood was sampled between 7 and 8 am. All procedures were approved by the University of Queensland Animal Ethics Committee, approval number SVS/474/17, 22nd December 2017.
Samples were taken to the laboratory within 1 h of collection. They were then stored as whole blood either in a temperature-monitored refrigerator (4 °C), in a temperature-controlled room (20 °C), or in incubators (30, 40, or 70 °C) for 1 h. Samples were then centrifuged at 3500× g at 4 °C for 10 min. The plasma was separated and analyzed within 2 h of collection from the horse. […] Due to the necessity of analyzing all samples within a 2-h window from collection, and limitations on the speed of the analyzer, the 15 horses were sampled over a 4-day period. The samples from each horse were run using the same kit.
The reference sample was defined as the sample stored at 4 °C.

[2] = delaying centrifugation of horse blood by 1 h; cited from earlier work
[3] = room temperature (21 °C), analyzed prior to 8 h; mostly PPID-negative horses; cited from earlier work
Excerpt: In contrast, our study found t ...

[4] = human blood samples at room temperature; cited from earlier work

| Substance | Mean change of immunoreactive ACTH concentration after 1 h ([1]; PPID horses) [%] | Bland–Altman mean bias of ACTH concentration, 4 versus 20 °C ([1]; equine EDTA whole blood stored 1 h at 20 °C vs 4 °C reference, then centrifuged, plasma immunoreactive ACTH by Immulite 1000 chemiluminescent assay, 15 horses) [pg/mL] | Bland–Altman mean bias of ACTH concentration, 4 versus 30 °C ([1]; equine EDTA whole blood stored 1 h at 30 °C vs 4 °C reference, Immulite 1000 chemiluminescent assay, 15 horses) [pg/mL] | Bland–Altman mean bias of ACTH concentration, 4 versus 40 °C ([1]; equine EDTA whole blood stored 1 h at 40 °C vs 4 °C reference, Immulite 1000 chemiluminescent assay, 15 horses) [pg/mL] | Bland–Altman mean bias of ACTH concentration, 4 versus 70 °C ([1]; equine EDTA whole blood stored 1 h at 70 °C vs 4 °C reference, Immulite 1000 chemiluminescent assay, only 9 of 15 samples analysable) [pg/mL] | ACTH concentration as percentage of the reference sample (4 °C = 100%), range over horses ([1]; 1 h at 20 °C, Immulite 1000 chemiluminescent assay, 15 horses (PPID and non-PPID, basal and post-TRH), not significant) [%] | ACTH concentration as percentage of the reference sample (4 °C = 100%), range over horses ([1]; 1 h at 30 °C, Immulite 1000, 15 horses, not significant) [%] | ACTH concentration as percentage of the reference sample (4 °C = 100%), range over horses ([1]; 1 h at 40 °C, Immulite 1000, 15 horses, not significant) [%] | ACTH concentration as percentage of the reference sample (4 °C = 100%), range over horses ([1]; 1 h at 70 °C, Immulite 1000, 9 of 15 samples analysable (solidification), p = 0.001) [%] | Mean change of immunoreactive ACTH concentration after 1 h ([1]; non-PPID horses) [%] | Measured ACTH concentration, reference sample ([1]; one non-PPID horse, post-TRH stimulation, whole blood 1 h at 4 °C, single horse) [pg/mL] | Measured ACTH concentration after storage ([1]; one non-PPID horse, post-TRH stimulation, whole blood 1 h at 20 °C, single horse) [pg/mL] | Measured ACTH concentration after storage ([1]; one non-PPID horse, post-TRH stimulation, whole blood 1 h at 40 °C, single horse) [pg/mL] | Deviation of measured ACTH concentration above the same sample stored at 4 °C ([1]; whole blood 1 h at 20 °C, maximum over horses) | Mean reduction in the measured ACTH concentration [2] [pg/mL] | Difference between samples kept at room temperature and at 4 °C [3] | Time at room temperature prior to centrifugation at which the measured ACTH concentration is altered [4] [h] |
| --- | --- | --- | --- | --- | --- | --- | --- | --- | --- | --- | --- | --- | --- | --- | --- | --- | --- |
| adrenocorticotropic hormone [ACTH] | 5 | -2.8 | -1.38 | -0.16 | 10.1 | 84.3 to 122.1 | 89.4 to 115.6 | 86.5 to 116.3 | 72 to 94.4 | 12 | 60.9 | 69.1 | 70.8 | up to 22% | 11.6 | no difference |  |
| human ACTH: endogenous human ACTH, reported as highly unstable due to proteolytic degradation (SYSMEHFRWGKPVGKKRRPVKVYPNGAEDESAEAFPLEF; Corticotropin; UniProt P01189 138-176, looked up) |  |  |  |  |  |  |  |  |  |  |  |  |  |  |  |  | ≥ 4 |
